Test results reported in US11065266B2, “Method of treating melanoma using an inhibitor of an atypical protein kinase C” (UNIVERSITY OF SOUTH FLORIDA, priority 2016, dated 2021).

How the values were obtained:
[1] = system: MeWo cells; assay: Western blot of protein levels; type: cell-based, human
[2] = system: malignant melanoma cells (SK-MEL-2 and MeWo); assay: Viable cell counts, malignant cell lines taken together; type: cell-based; conditions: Homo sapiens; for IC50: from dose curves of cell proliferation, read-out: half maximal inhibitory concentration (IC50)
Description: Dose curves (inhibitor concentrations vs cell population after 3 days) for ICA-1, ACPD, DND and ζ-Stat were obtained for all 3 cell lines as follows. PCS-200-013, SK-MEL-2 and MeWo cells (4×10^4) were cultured in 25 cm^2 flasks and treated with either equal volume of sterile water (vehicle control). Cells were treated every 24 h during 3 day incubation period and cells were then lifted using Trypsin-EDTA solution (1.5 mL/flask) and neutralized with the equal volume of media. Subsequently, live cells were counted using the Scepter, an automated cell counter from Millipore (Billerica, Mass.). The cell growth inhibition for all inhibitors for the two malignant cell lines (SK-MEL-2 and MeWo) were quantified by counting the viable cells at 24 hour intervals. Cell counts obtained from Scepter was compared with the counts obtained from the Cellometer Vision from Nexcelom Bioscience (Lawrence, Mass.).
Dose curves for ACPD and DNDA were obtained to investigate the effect on cell proliferation of normal and malignant cell lines over a wide range of concentrations. […] ACPD decreased proliferation by 20% for 1.5 μM (p≤0.01), 48% for 2.5 μM (p≤0.01) and 51% for 3.5 μM (p≤0.001)(FIG. 5B). DNDA decreased by 17% for 500 nM (p≤0.01), 24% for 1.5 μM(p≤0.01), 52%) for 2.5 µM (p≤0.01) and 57 for 3.5 μM (p≤0.01)(FIG. 5C) in SK-MEL-2 cells. ACPD decreased proliferation by 28% for 500 nM (p≤0.01), 41% for 1.5 μM (p≤0.01), 54% for 2.5 µM (p≤0. 01) and 58% for 3.5 μM (p≤0.01) (FIG. 5D). DNDA decreased proliferation by 37% for 500 nM (p≤0.01), 41% for 1.5 μM (p≤0.01), 46% for 2.5 μM (p≤0.01) and 48% for 3.5 μM (p≤0.01) (FIG. 5E) in the MeWo cells.
To test the effects of ζ-Stat on malignant cells approximately 4×10^4 of cells were cultured in 25 cm2 flasks and treated with either equal volume of sterile water (control) or ζ-Stat (0.1-10 μM). Additional doses of sterile water or inhibitor were supplied every 24 h during 3 day incubation period. Subsequently, cells were lifted and counted. Cells were quantified by counting the viable cells at 24 hour intervals. […] N=3 experiments were performed for each cell line and mean±SD are plotted.

[3] = system: MeWo cells; assay: Wound healing assay; type: cell-based, human; conditions: 2.5 μM, day 3 or 4, p≤0.01
Description: For the wound-healing assay, melanoma cells were seeded into 35 mm dishes in 6-well-plates. After the cells had reached 100% confluency, the wound-healing assay was performed with a sterile pipette tip (1-10 μL pipette tip) by making a scratch through the confluent monolayer. Subsequently, the cells were washed with DPBS and fresh medium (EMEM) was added to each well and the desired amount of inhibitor was added in order to achieve the final concentrations of 50 nM, 100 nM, 200 nM, 500 nM and 1 μM against the control. Cells were cultured for 48 h. In 24 hours intervals, pictures of wound closure were taken and the percentage of wound closure was calculated in three randomly chosen fields.
A wound healing assay was performed to investigate the effect of ACPD and DNDA on malignant melanoma cell migration in vitro. Wound healing assay is commonly used to investigate in vitro migration of cancer cells. For the wound-healing assay, melanoma cells were seeded into 35 mm dishes in 6-well-plates. […] The percentage of wound closure was calculated after 3 or 4 days.
In one set of experiments, cells were cultured for 48 h. In 24 hours intervals, pictures of wound closure were taken and the percentage of wound closure was calculated in three randomly chosen fields. […] The areas of the scratch (wound) were calculated and compared to determine the statistical significance (FIG. 8C).

[4] = system: MeWo cells; assay: BME invasion assay (Calcein-AM fluorescence); type: cell-based, human; conditions: 2.5 μM, vs control
Description: (§1) This invasion assay was performed to investigate the effect of ACPD and DNDA on malignant melanoma cell invasion in vitro. Even though it is similar to the Boyden chamber assay, it avoids scraping off the Matrigel and staining to assess migrated number of cells through filter. […] Migrated cells were stained with a fluorescent marker, Calcein-AM. Live cells cleave the ester (AM) of the molecule in order to produce fluorescence. Thus, the amount of fluorescence accumulated in the bottom chamber is proportional to the number of invaded cells. The relative fluorescent units (excitation at 485 and emission at 528 nm) after 2 h exposure were reported for inhibitor treatments for both SK-MEL-2 and MeWo cell lines compared to controls (FIG. 8D).

[5] = system: SK-MEL-2 cells; assay: BME invasion assay (Calcein-AM fluorescence); type: cell-based, human; conditions: 2.5 μM, vs control
Description: as §1

SMILES | decrease of Bcl-2 levels [1] [%] | decrease of CD44 [1] [%] | decrease of PARP levels [1] [%] | decrease of Vimentin levels [1] [%] | decrease of β-catenin [1] [%] | increase of Caspase-3 levels [1] [%] | increase of E-cadherin levels [1] [%] | increase of NF-KB p65 levels [1] [%] | increase of cleaved PARP levels [1] [%] | IC50 [2] [nM] | wound closure [3] | reduction of invasion [4] [%] | reduction of invasion [5] [%] | increase of PARP levels [1] [%] | cytotoxicity at 2.5 µM ([2]; 2.5 μM, read-out: inhibition of cell viability according to cell counts) [%] | cytotoxicity at 5 µM ([2]; 5 μM, read-out: inhibition of cell viability according to cell counts) [%] | cytotoxicity at 10 µM ([2]; 10 μM, read-out: inhibition of cell viability according to cell counts) [%]
CC(=O)C1=C(O)CCC1=O [ACPD, 2-acetyl-1,3-cyclopentanedione] | 25 | 34 | 24 | 38 | 16 | 17 | 35 | 69 | 18 | ~2500 | significantly reduce the wound closure | 21 | 24 |  |  |  | 
Nc1c(S(=O)(=O)O)cc2cc(S(=O)(=O)O)ccc2c1N [DNDA, 3,4-diamino-2,7-naphthalenedisulfonic acid] | 32 | 43 |  | 45 | 21 | 39 | 29 | 89 | 10 | ~2500 | significantly reduce the wound closure | 32 | 32 | 9 |  |  | 
O=S(=O)(O)c1cc(O)c2c(S(=O)(=O)O)cc(S(=O)(=O)O)cc2c1 [ζ-Stat, 8-hydroxy-1,3,6-naphthalenetrisulfonic acid] |  |  |  |  |  |  |  |  |  |  |  |  |  |  | 20 to 25 | ~50 | ~50
